# Entries after “also recorded” stand apart in the source; their conditions may differ.
# What was measured:
# Chrom logD = assay type: physicochemical; conditions: pH 7.4
# ATAD2B bromodomain = molecular target: T1, ATAD2B bromodomain (Homo sapiens, UniProt Q9ULI0); experiment: ATAD2B TR-FRET; assay type: binding
# T1 sequence (Q9ULI0 951-1066 limits assumed): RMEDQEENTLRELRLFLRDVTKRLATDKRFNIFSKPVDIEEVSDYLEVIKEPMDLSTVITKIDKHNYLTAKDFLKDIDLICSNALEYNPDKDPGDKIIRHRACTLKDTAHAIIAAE
# tandem BRD4 bromodomains = tandem BRD4 bromodomains (Homo sapiens, UniProt O60885); experiment: BRD4 tandem isothermal titration calorimetry; assay type: binding
# BRD2 BD1 = BRD2 BD1 (Homo sapiens, UniProt P25440); experiment: BRD2 BD1 TR-FRET; assay type: binding
# BRD2 BD1, sequence (P25440 74-180 limits assumed): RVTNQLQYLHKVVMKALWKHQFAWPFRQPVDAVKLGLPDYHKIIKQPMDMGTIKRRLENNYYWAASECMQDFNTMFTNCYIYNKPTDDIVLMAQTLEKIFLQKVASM
# CLND solubility = assay type: physicochemical
# [1] = system: internal GSK panel of 40 targets considered as potential liabilities; experiment: Internal GSK panel of 40 liability targets; conditions: data not shown
# [2] = molecular target: T2, ATAD2 bromodomain / histone H3.3 (Homo sapiens, UniProt Q6PL18); experiment: Cellular NanoBRET displacement, ATAD2 bromodomain from histone H3.3; assay type: cell-based; conditions: NanoBRET (Promega)
# T2 sequence (Q6PL18 980-1092 limits assumed): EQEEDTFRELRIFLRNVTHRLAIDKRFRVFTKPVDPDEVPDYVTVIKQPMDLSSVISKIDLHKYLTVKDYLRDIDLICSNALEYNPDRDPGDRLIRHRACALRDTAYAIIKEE
# [3] = molecular target: T3, full-length ATAD2 / histone H3.3 (Homo sapiens, UniProt Q6PL18); experiment: Cellular NanoBRET displacement, full-length ATAD2 from histone H3.3; assay type: cell-based
# T3 sequence (Q6PL18 1-1390): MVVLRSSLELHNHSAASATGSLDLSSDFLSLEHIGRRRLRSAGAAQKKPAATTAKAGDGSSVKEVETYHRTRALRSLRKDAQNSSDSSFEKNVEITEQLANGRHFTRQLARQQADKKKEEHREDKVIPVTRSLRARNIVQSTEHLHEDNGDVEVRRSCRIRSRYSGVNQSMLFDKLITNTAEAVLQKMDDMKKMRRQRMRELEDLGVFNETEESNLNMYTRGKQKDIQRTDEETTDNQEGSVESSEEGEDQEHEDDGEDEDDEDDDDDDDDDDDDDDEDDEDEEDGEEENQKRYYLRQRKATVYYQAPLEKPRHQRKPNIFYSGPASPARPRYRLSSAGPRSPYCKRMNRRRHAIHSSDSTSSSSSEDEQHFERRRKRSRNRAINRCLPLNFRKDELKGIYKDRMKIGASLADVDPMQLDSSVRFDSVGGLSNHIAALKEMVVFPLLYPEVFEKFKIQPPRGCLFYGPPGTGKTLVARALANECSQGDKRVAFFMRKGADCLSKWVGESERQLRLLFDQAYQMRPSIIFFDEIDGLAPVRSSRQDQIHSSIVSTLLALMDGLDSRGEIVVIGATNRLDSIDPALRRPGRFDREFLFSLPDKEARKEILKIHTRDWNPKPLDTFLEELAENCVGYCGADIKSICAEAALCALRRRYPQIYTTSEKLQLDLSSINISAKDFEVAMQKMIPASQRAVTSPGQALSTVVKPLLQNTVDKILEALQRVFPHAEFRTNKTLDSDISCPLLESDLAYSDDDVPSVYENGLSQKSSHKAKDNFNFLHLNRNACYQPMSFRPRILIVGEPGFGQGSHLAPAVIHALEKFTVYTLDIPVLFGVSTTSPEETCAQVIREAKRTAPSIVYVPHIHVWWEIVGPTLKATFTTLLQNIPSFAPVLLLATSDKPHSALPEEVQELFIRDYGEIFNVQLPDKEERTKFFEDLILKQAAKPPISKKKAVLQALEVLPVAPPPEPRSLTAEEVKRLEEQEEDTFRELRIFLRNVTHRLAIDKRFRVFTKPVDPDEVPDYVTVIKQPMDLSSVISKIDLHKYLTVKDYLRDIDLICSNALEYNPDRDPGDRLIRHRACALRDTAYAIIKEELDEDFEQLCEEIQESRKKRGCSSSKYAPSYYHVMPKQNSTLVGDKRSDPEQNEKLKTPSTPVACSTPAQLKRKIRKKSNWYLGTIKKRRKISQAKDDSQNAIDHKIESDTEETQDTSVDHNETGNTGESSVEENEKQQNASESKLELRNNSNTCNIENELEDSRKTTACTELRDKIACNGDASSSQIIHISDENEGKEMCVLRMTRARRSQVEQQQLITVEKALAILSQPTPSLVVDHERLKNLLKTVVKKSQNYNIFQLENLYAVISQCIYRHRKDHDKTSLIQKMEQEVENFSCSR
# colony formation = experiment: Colony formation; assay type: cell-based
# [4] = system: genes involved in cell cycle and division; experiment: Expression of genes involved in cell cycle and division; assay type: cell-based
structure (smiles),measurement,setting,value
CO[C@H]1CNC[C@@H](OCC2CCC(F)(F)CC2)[C@@H]1Nc1ncc(-c2cncc(C)c2)c2cc(C)c(=O)[nH]c12 [Compound 16],chromatographic logD,Chrom logD,3.2
same,IC50,ATAD2B bromodomain,20 nM
same,Interaction with tandem BRD4 bromodomains by ITC,tandem BRD4 bromodomains,no interaction detected
same,IC50,BRD2 BD1,≥ 39800 nM
same,solubility,CLND solubility,> 439 µM
same,Off-target activity against internal GSK panel of 40 targets,[1],inactive
same,Displacement of labelled ATAD2 bromodomain from histone H3.3,[2],dose-dependent displacement; also recorded: displaces the ATAD2 bromodomain construct
same,Displacement of full-length ATAD2 from histone H3.3,[3],ineffective; also recorded: does not displace full-length ATAD2
same,Effects on colony formation,colony formation,only seen at high compound concentrations
same,Inhibition of genes involved in cell cycle and division,[4],only seen at high compound concentrations
